Measurements as given in patent publication US11524000B2, “Targeting Mcl-1 to enhance DNA replication stress sensitivity for cancer therapy” (Emory University, priority 2017, dated 2022).

Experiments:
[1] = test system: RPA2 foci in WT MEF cells; assay: RPA2 foci immunostaining in WT MEF cells (DNA end resection); format: cell-based
Description: (§1) HR repair is initiated by DSB end resection that is mediated by the Mre11 complex, whereas Ku tightly bound to DNA ends blocks Mre11 DNA resection. As Mcl-1 negatively regulates Ku function via direct binding, Mcl-1 may reverse the Ku-mediated inhibitory effect on Mre11 complex-mediated DNA end resection. Mre11-Rad50 complex-mediated exonuclease activity was analyzed in the presence of increasing concentrations of Mcl-1 protein using 5′-32P-end-labeled fork DNA as a substrate. […] Ku heterodimer inhibited MR-mediated DNA resection (FIG. 2A, lane 3 vs. lane 2), which was gradually reversed by the addition of increasing concentrations of purified Mcl-1 protein in the presence of a constant amount of Ku protein (FIG. 2A, lane 3 vs. lanes 4-7). BSA was used as control and had no effect on DNA resection. […] In addition, RPA2 is an established reporter of DNA end resection during HR repair in cells. To further test the effect of Mcl-1 on DNA resection in cells, RPA2 foci formation following treatment with Hu, camptothecin (CPT), or IR was compared in WT and Mcl1−/− MEFs. […] RPA2 phosphorylation at Ser4 and Ser8 was analyzed by Western blot using the S4/S8 dual-site phosphospecific RPA2 antibody following exposure of MEF WT or MEF Mcl1−/− cells to IR, CPT, and Hu. […]

[2] = test system: RPA2 phosphorylation at Ser4 and Ser8; assay: RPA2 Ser4/Ser8 phosphorylation by Western blot in MEF cells; format: cell-based
Description: as §1

Mcl-1/Ku complex = target: T1, Mcl-1/Ku complex (Homo sapiens, UniProt Q07820); assay: Co-IP of Mcl-1/Ku interaction in H1299 cells; format: cell-based; conditions: for Mcl-1/Ku interaction: time course 0, 0.5, 1, 2, 8, or 24 hours
T1 construct: endogenous in cells; host or cells: H1299
T1 sequence (Q07820 whole entry, one chain of several): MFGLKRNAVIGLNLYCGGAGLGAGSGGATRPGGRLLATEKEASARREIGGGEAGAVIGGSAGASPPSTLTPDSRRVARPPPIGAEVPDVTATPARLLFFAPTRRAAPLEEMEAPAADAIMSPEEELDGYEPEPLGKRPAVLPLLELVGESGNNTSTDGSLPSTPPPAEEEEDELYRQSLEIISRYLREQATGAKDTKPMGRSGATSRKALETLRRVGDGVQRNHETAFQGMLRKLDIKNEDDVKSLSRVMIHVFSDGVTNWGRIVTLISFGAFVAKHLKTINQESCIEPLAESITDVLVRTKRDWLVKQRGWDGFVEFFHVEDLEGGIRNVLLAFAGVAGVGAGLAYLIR
Description: (§2) To test whether replication stress affects the Mcl-1/Ku interaction, time course experiments were carried out. H1299 cells were treated with Hu or olaparib for various times (0, 0.5, 1, 2, 8, or 24 hours). The Mcl-1/Ku interaction and cell cycle were analyzed simultaneously at each time point. […] These findings indicate that, in addition to S/G2 cell cycle phase, Hu- or olaparib-induced DNA replication stress can also promote Mcl-1/Ku interaction.
(§3) To assess whether Mcl-1 is essential for the effect of MI-223 on HR activity, Mcl-1 was knocked out from H1299 cells using CRISPR/Cas9 to generate Mcl-1-deficient cells. WT Mcl-1, Ku binding-deficient mutant ΔBH1, and empty vector control were exogenously expressed in Mcl-1-knockout H1299 (Mcl1−/− H1299) cells, followed by treatment with MI-223 for 24 hours and analysis of HR efficacy. […] Intriguingly, expression of exogenous WT Mcl-1 but not the Ku binding-deficient ΔBH1 Mcl-1 mutant in Mcl-1-deficient H1299 cells restored the inhibitory effect of MI-223 on HR activity.

[3] = test system: Rad51 foci in H1299 cells; assay: Rad51 foci immunostaining in H1299 cells; format: cell-based; conditions: for induction of Rad51 foci: single agent
Description: Rad51 foci were quantified by counting of at least 100 cells from each sample.
(§4) To test whether inhibition of HR by MI-223 sensitizes cancer cells to DNA replication stress, H1299 cells were treated with olaparib or Hu in the absence or presence of MI-223, followed by analysis of Rad51 foci and clonogenic survival. […] Importantly, MI-223 suppression of HR DNA repair activity synergizes with olaparib or Hu to kill H1299 lung cancer cells (FIG. 4H).

H1299 cells [4] = assay: Cell cycle analysis of H1299 cells during replication stress time course; format: cell-based
Description: as §2

[5] = test system: H1299 lung cancer xenografts; assay: H1299 lung cancer xenograft tumor growth in nude mice; format: in vivo; conditions: for repression of lung cancer in vivo (tumor volume): single agent, 0, 20, 40, 80 and 120 mg/kg/day for 30 days; for suppression of lung tumor growth: vs single agent
Description: Nu/Nu nude mice with H1299 lung cancer xenografts were treated with increasing doses of MI-223 (0, 20, 40, 80 and 120 mg/kg/day) for 30 days (n=8 mice per group). Tumor volume was measured once every 2 days. After 30 days, the mice were sacrificed, and the tumors were removed and analyzed. […]

WT Mcl-1 protein = WT Mcl-1 protein (Homo sapiens, UniProt Q07820); assay: Isothermal titration calorimetry (ITC), MI-223/Mcl-1 binding; conditions: 1-site binding mode, read-out: binding constant (KD)
WT Mcl-1 protein, sequence (Q07820 whole entry): as the sequence (Q07820 whole entry, one chain of several) above
Description: (§5) The binding constant (KD) value was determined by fitting of the titration curve to a 1-site binding mode
(§6) To confirm the binding of MI-223 with Mcl-1, isothermal titration calorimetry (ITC) was used to measure MI-223/Mcl-1 binding. ITC is a direct, label- and immobilization-free technique that measures the binding affinity between proteins and small-molecule ligands that interact with each other, and can analyze binding constant (KD) values in the millimolar and nanomolar range. ITC experiments were performed to assess MI-223/Mcl-1 binding using an auto-iTC200 instrument. […] In addition to the binding constant (KD) value measured by ITC, we also used fluorescence polarization (FP) to measure the inhibitory constant (KI) value using a fluorescence-labeled PUMA BH3 peptide. The PUMA BH3 peptide was chose for this FP assay to evaluate Mcl-1/MI-223 binding because it has been reported to bind specifically to the […] of Mcl-1. […] Based on findings from both ITC (i.e., KD) and FP (i.e., KI), we conclude that MI-223 may directly bind to Mcl-1 with good affinity.

[6] = target: T2, BH1 deletion Mcl-1 mutant protein (ΔBH1) (Homo sapiens, UniProt Q07820, DEL256-265); assay: Isothermal titration calorimetry (ITC), BH1 deletion mutant; format: binding; conditions: ITC assay
T2 construct: made in house
T2 sequence (Q07820 with tags, fused parts or gaps DEL256-265): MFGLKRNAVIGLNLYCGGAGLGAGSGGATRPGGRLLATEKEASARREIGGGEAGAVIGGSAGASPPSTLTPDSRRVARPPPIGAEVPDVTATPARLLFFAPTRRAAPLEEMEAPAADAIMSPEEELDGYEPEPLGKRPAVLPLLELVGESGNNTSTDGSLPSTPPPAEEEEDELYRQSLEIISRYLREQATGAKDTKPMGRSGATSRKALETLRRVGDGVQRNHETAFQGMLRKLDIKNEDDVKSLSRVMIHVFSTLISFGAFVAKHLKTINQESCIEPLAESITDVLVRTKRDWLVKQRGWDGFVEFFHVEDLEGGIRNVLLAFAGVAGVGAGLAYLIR
Description: as §5, §6

Mcl-1 = Mcl-1 (Homo sapiens, UniProt Q07820); assay: Fluorescence polarization (FP) assay with fluorescence-labeled PUMA BH3 peptide; conditions: read-out: inhibitory constant (KI) of MI-223/Mcl-1 binding
Mcl-1, sequence (Q07820 whole entry): as the sequence (Q07820 whole entry, one chain of several) above
Description: as §6

[7] = test system: HR activity in H1299 DR-GFP cells; assay: HR repair efficiency in H1299 DR-GFP cells; format: cell-based
[8] = test system: HR activity in U2OS DR-GFP cells; assay: HR repair efficiency in U2OS DR-GFP cells; format: cell-based; conditions: dose-dependent
[9] = test system: HR efficacy in Mcl-1-deficient H1299 cells; assay: HR efficacy in Mcl-1-knockout H1299 cells; format: cell-based; conditions: 24 hours
Description: as §3

H1299 lung cancer cells = assay: Colony formation assay (clonogenic survival) in H1299 cells; format: cell-based
Description: as §4

H1299 cells [10] = assay: Annexin V binding assay; format: cell-based
[11] = test system: H1299 lung cancer xenografts; assay: IHC staining of Ki-67 and γ-H2AX in xenograft tumor tissues; format: in vivo, mice
[12] = Toxicity evaluation in treated xenograft mice (weight, blood chemistry, blood counts, histopathology); format: in vivo
[13] = MI-223 in combination with Hu, compared with Hu alone
[14] = MI-223 in combination with olaparib, compared with olaparib alone
[15] = mice treated with MI-223 alone or in combination with olaparib or Hu

CC[C@@]1(O)C(=O)OCc2c1cc1n(c2=O)Cc2cc3ccccc3nc2-1 [CPT, camptothecin]
RPA2 foci formation ([1]; CPT 1 μM for 1 hour): induced RPA2 foci formation
RPA2 phosphorylation at S4 and S8 ([2]; CPT 1 μM for 1 hour): stimulated RPA2 phosphorylation

NC(=O)NO [Hu, hydroxyurea]
Mcl-1/Ku interaction (Mcl-1/Ku complex): increased at 2, 8, and 24 hours
induction of Rad51 foci [3]: induced Rad51 foci
percentage of cells in S phase (H1299 cells [4]; 24-hour time point): enhanced
percentage of cells in S phase (H1299 cells [4]; short time points (2 and 8 hours)): did not alter
RPA2 foci formation ([1]; Hu 0.2 mM for 24 hours): induced RPA2 foci formation
RPA2 phosphorylation at S4 and S8 ([2]; Hu 0.2 mM for 24 hours): stimulated RPA2 phosphorylation

O=[N+]([O-])c1ccccc1C=NNC(=S)NN=Cc1ccccc1[N+](=O)[O-] [MI-361, N′-(2-nitrobenzylidene)-2-(2-nitrobenzylidene)hydrazine-1-carbothiohydrazide]
repression of lung cancer in vivo (tumor volume) [5]: potently represses lung cancer in vivo

CCOC1=CC=CC(=CNn2c(-c3ccccc3Cl)nc3ccccc3c2=O)C1=O [MI-223, 2-(2-chlorophenyl)-3-(((5-ethoxy-6-oxocyclohexa-2,4-dien-1-ylidene)methyl)amino)quinazolin-4(3H)-one]
Kd (WT Mcl-1 protein): 161 ± 7 nM
binding to ΔBH1 Mcl-1 mutant protein [6]: failed to bind
Ki (Mcl-1): 193 ± 4.3 nM
disruption of Mcl-1/Ku complex (Mcl-1/Ku complex; increasing concentrations, 24 hours, co-IP with Mcl-1 antibody): disrupted the Mcl-1/Ku complex
HR activity ([7]; H1299 DR-GFP cells, dose-dependent): potently inhibited HR activity
HR efficacy ([7]; H1299 parental cells, 24 hours): dose-dependent reduction of HR efficacy
HR activity [8]: potently inhibited HR activity
HR efficacy [9]: no significant further effect
inhibition of Rad51 foci formation ([3]; olaparib- or Hu-induced foci, MI-223 4 μM, 24 hours): strongly inhibited Rad51 foci formation
synergy in cell killing (colony formation) (H1299 lung cancer cells; MI-223 in combination with Hu): synergizes
synergy in cell killing (colony formation) (H1299 lung cancer cells; MI-223 in combination with olaparib): synergizes
apoptotic cell death (H1299 cells [10]): did not induce significant apoptotic cell death
suppression of lung tumor growth ([5]; MI-223 40 mg/kg/d in combination with Hu 500 mg/kg): significantly greater efficacy than a single agent alone
suppression of lung tumor growth ([5]; MI-223 40 mg/kg/d in combination with olaparib 40 mg/kg/d, 3 weeks): significantly greater efficacy than a single agent alone
repression of lung cancer in vivo (tumor volume) [5]: potently represses lung cancer in vivo
Ki-67 in tumor tissues [11, 13]: significant reduction of Ki-67
γ-H2AX in tumor tissues [11, 13]: increased levels of γ-H2AX
Ki-67 in tumor tissues [11, 14]: significant reduction of Ki-67
γ-H2AX in tumor tissues [11, 14]: increased levels of γ-H2AX
histopathologic evaluation of normal tissues ([12]; brain, heart, lung, liver, spleen, kidney, and intestine): no evidence of normal tissue toxicity
increase in alanine transaminase, aspartate transaminase, or blood urea nitrogen [12, 15]: no significant
reduction in wbcs, rbcs, hemoglobin, or platelets [12, 15]: no significant
weight loss [12, 15]: no significant weight loss

Cc1ccc(C)c(NC(=O)C(=O)C(C(=O)c2ccc3ccccc3c2)C2OC(=O)c3ccccc32)c1 (stereo not shown) [MI-985, N-(2,5-dimethylphenyl)-4-(naphthalen-2-yl)-2,4-dioxo-3-(3-oxo-1,3-dihydroisobenzofuran-1-yl)butanamide]
repression of lung cancer in vivo (tumor volume) [5]: potently represses lung cancer in vivo

O=C(c1cc(Cc2n[nH]c(=O)c3ccccc23)ccc1F)N1CCN(C(=O)C2CC2)CC1 [olaparib]
Mcl-1/Ku interaction (Mcl-1/Ku complex): increased at 2, 8, and 24 hours
induction of Rad51 foci [3]: induced Rad51 foci
percentage of S phase cells (H1299 cells [4]; time points tested): did not significantly affect

O=C1C=CC=CC1=CNNc1nnc(NNC=C2C=CC=CC2=O)c2ccccc12 [MI-647, 6,6′-((phthalazine-1,4-diylbis(hydrazine-2,1-diyl))bis(methanylylidene))bis(cyclohexa-2,4-dien-1-one)]
repression of lung cancer in vivo (tumor volume) [5]: potently represses lung cancer in vivo
